Source: ChEMBL document CHEMBL3991601, “The target landscape of clinical kinase drugs” (Science, 2017)
Activity calls are given as the source filed them.

Tests used:
[1] = biological target: Calcium/calmodulin-dependent protein kinase type II subunit gamma (Homo sapiens, UniProt Q13555)
[2] = biological target: Serine/threonine-protein kinase MRCK beta (Homo sapiens, UniProt Q9Y5S2)
Ephrin type-B receptor 6 = biological target: T1, Ephrin type-B receptor 6 (Homo sapiens, UniProt O15197)
T1 sequence (O15197 whole entry): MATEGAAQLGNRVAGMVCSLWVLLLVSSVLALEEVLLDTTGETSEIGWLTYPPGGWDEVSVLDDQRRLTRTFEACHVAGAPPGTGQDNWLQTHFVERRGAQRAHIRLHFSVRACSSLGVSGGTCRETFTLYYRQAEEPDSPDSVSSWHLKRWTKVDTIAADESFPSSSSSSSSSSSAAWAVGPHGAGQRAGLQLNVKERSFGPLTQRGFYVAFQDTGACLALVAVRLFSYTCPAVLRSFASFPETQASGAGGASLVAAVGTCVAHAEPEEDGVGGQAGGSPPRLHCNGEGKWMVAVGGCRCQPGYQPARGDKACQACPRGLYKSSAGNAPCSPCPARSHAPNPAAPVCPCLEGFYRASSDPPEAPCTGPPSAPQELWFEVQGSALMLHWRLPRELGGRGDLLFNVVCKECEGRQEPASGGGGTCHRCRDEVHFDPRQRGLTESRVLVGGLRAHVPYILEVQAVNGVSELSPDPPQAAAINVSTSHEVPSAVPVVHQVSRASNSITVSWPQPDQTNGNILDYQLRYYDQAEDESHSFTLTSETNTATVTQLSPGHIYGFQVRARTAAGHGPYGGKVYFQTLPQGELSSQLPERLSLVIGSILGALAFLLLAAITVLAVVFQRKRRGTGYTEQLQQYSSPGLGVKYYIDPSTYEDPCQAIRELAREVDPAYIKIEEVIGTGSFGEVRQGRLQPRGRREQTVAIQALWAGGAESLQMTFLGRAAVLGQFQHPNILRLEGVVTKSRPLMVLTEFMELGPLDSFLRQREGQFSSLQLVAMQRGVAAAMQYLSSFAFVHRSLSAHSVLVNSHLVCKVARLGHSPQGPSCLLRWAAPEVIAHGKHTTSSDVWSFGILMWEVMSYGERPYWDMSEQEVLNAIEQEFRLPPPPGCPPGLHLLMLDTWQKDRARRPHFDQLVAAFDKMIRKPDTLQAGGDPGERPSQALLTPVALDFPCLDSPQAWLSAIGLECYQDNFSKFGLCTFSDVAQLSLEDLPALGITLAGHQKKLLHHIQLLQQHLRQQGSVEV

[3] = biological target: T2, RNA cytidine acetyltransferase (Homo sapiens, UniProt Q9H0A0)
T2 sequence (Q9H0A0 whole entry): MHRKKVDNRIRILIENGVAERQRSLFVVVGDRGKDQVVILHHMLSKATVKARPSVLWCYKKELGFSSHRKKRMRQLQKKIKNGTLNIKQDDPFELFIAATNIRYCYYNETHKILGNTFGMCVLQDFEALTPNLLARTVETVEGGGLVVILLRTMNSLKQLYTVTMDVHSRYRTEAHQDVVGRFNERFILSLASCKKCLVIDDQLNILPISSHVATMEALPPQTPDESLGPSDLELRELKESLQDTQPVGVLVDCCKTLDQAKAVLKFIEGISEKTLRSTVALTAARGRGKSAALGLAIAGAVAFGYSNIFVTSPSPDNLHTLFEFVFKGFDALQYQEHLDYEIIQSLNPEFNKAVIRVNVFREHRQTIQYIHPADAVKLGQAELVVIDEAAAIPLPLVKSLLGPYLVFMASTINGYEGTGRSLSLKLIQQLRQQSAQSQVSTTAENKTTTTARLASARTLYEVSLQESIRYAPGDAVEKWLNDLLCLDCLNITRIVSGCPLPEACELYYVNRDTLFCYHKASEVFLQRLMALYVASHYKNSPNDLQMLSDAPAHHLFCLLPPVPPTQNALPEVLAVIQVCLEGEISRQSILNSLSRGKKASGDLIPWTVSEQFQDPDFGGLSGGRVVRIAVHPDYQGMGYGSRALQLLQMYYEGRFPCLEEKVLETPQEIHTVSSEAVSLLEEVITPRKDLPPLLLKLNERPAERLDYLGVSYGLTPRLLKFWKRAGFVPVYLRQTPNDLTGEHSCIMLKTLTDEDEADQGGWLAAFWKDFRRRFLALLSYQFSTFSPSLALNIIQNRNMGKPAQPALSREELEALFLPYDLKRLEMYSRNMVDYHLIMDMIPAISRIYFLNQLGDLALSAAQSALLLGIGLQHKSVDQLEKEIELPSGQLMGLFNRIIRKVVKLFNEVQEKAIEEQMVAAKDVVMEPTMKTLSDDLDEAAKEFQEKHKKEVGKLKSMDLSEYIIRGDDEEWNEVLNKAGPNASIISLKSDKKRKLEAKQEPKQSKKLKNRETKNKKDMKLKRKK

[4] = biological target: Serine/threonine-protein kinase PAK 4 (Homo sapiens, UniProt O96013)
[5] = biological target: Structural maintenance of chromosomes protein 2 (Homo sapiens, UniProt O95347)

Measured: Kd
Also: in the data inactive means no Kd found up to 30 µM.

Calcium/calmodulin-dependent protein kinase type II subunit gamma, sequence (Q13555 whole entry): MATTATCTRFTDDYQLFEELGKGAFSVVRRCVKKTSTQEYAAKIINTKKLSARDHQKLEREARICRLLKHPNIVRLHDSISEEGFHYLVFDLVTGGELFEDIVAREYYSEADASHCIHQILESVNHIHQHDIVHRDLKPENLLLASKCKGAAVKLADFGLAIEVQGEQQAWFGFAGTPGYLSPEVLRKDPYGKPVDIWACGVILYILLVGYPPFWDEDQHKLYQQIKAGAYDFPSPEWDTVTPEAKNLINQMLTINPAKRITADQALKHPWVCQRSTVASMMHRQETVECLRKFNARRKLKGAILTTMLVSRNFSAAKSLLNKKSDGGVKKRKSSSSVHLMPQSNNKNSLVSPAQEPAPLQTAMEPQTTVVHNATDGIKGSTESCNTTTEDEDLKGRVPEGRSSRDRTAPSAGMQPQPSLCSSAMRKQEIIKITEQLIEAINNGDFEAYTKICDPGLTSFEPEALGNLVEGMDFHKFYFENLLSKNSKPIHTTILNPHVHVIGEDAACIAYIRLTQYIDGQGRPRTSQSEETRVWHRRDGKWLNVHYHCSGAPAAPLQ
Structural maintenance of chromosomes protein 2, sequence (O95347 whole entry): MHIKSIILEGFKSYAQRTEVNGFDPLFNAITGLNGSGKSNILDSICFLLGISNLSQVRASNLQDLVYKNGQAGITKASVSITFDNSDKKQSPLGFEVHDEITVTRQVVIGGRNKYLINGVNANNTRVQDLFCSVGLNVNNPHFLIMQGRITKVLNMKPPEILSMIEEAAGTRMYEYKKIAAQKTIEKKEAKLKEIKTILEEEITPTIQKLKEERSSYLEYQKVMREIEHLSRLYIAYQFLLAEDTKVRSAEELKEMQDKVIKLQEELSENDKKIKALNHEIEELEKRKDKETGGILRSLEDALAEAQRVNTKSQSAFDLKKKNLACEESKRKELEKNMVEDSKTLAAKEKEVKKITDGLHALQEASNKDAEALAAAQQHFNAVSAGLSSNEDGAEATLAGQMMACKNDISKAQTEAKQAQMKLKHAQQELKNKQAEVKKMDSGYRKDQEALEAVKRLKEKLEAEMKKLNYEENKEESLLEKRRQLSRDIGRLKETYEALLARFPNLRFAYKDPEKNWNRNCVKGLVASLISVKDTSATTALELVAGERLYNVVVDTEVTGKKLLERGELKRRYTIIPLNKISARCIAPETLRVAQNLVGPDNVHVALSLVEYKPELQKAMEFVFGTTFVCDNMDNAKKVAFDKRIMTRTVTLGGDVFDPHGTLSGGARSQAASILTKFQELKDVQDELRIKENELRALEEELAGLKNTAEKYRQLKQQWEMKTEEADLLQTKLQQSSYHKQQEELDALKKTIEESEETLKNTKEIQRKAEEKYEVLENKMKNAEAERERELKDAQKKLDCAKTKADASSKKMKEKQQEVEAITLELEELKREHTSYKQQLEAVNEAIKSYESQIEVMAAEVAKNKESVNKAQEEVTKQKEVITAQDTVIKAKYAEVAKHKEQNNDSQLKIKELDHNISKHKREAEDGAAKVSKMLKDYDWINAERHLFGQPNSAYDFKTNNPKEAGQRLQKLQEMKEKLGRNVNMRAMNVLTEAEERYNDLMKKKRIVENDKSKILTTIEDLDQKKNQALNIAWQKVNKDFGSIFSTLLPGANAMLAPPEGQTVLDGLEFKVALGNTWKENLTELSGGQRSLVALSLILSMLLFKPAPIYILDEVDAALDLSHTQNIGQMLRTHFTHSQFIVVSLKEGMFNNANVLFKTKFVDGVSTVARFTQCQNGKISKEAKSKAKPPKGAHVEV
Serine/threonine-protein kinase PAK 4, sequence (O96013 whole entry): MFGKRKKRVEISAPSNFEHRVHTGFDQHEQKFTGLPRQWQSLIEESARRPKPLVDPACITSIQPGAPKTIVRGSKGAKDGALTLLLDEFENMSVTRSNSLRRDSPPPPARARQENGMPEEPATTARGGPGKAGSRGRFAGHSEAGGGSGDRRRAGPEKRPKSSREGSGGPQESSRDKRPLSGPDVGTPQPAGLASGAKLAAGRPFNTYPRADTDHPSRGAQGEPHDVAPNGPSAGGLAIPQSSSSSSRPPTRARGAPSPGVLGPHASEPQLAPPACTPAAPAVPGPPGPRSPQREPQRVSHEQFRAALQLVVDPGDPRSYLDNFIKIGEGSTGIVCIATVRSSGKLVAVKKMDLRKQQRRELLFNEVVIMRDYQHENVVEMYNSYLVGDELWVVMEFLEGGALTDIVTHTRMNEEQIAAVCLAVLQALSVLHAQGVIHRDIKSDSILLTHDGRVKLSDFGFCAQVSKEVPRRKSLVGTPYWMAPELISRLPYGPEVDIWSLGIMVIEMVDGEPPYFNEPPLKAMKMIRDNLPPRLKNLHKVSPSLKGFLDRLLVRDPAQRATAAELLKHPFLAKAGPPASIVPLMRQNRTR
Serine/threonine-protein kinase MRCK beta, sequence (Q9Y5S2 whole entry): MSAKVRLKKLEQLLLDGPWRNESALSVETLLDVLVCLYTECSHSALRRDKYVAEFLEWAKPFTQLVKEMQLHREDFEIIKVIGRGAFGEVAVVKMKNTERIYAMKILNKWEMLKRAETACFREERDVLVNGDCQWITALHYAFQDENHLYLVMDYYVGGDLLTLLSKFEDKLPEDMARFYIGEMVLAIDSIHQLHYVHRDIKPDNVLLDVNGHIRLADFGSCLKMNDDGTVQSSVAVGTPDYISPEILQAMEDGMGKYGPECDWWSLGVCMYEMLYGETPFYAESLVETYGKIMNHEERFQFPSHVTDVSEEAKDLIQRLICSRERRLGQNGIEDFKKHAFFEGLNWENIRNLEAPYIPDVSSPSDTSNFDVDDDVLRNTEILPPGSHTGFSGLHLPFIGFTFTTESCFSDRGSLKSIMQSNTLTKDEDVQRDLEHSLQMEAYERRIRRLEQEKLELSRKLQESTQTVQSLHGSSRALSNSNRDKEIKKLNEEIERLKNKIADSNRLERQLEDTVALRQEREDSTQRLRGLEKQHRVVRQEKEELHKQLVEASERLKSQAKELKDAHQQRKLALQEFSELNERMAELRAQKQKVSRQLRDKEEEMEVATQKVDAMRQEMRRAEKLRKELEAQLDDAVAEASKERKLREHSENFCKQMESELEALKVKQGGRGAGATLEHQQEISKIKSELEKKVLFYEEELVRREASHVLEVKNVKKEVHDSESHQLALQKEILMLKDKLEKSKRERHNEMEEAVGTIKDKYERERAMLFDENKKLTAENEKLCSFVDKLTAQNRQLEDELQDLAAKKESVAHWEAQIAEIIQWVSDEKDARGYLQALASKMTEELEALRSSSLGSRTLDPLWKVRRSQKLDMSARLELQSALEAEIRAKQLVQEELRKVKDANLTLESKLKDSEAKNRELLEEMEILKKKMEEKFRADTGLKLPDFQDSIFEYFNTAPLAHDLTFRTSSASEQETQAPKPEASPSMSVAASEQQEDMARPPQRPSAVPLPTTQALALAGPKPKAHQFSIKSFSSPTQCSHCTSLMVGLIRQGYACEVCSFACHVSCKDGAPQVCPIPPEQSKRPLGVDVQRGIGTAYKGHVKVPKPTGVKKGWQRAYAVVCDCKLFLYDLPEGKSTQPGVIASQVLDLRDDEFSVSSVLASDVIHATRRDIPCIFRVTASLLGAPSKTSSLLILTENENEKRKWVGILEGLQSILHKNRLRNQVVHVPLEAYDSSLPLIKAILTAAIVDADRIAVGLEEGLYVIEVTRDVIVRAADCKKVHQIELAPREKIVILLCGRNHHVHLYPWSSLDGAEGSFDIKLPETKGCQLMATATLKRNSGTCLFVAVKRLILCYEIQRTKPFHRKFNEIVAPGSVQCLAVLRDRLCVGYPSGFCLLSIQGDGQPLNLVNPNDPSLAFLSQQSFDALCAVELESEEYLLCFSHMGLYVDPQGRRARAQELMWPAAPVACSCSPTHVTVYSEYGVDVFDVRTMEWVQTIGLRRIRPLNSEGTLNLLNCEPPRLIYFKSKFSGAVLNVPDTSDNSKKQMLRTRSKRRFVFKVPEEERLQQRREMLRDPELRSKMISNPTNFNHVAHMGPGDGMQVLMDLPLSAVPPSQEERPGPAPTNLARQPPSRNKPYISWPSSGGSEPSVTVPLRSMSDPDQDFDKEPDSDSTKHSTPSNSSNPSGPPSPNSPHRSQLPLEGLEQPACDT

COCC(=O)NC/C=C/c1ccc2ncnc(Nc3ccc(Oc4ccc(C)nc4)c(C)c3)c2c1 [CP-724714]
inactive: [1] > 30 µM | [2] > 30 µM | Ephrin type-B receptor 6 > 30 µM | [3] > 30 µM | [4] > 30 µM | [5] > 30 µM

Cc1nc(NC(=O)N2CCC[C@H]2C(N)=O)sc1-c1ccnc(C(C)(C)C(F)(F)F)c1 [ALPELISIB]
inactive: [1] > 30 µM | [2] > 30 µM | Ephrin type-B receptor 6 > 30 µM | [3] > 30 µM | [4] > 30 µM | [5] > 30 µM

CNC(=O)c1nn(C)c2c1C(C)(C)Cc1cnc(Nc3ccc(N4CCN(C)CC4)cc3)nc1-2 [MILCICLIB]
inactive: [1] > 30 µM | [2] > 30 µM | Ephrin type-B receptor 6 > 30 µM | [3] > 30 µM | [4] > 30 µM | [5] > 30 µM

Cn1ncc(Cl)c1-c1cc(C(=O)N[C@H](CN)Cc2ccc(F)c(F)c2)oc1Cl [UPROSERTIB]
inactive: [1] > 30 µM | [2] > 30 µM | Ephrin type-B receptor 6 > 30 µM | [3] > 30 µM | [4] > 30 µM | [5] > 30 µM

CCCCCCCCCCCCCCCCCCOP(=O)([O-])OC1CC[N+](C)(C)CC1 [PERIFOSINE]
inactive: [1] > 30 µM | [2] > 30 µM | Ephrin type-B receptor 6 > 30 µM | [3] > 30 µM | [4] > 30 µM | [5] > 30 µM

COc1ncc(-c2ccc3nccc(-c4ccnnc4)c3c2)cc1NS(=O)(=O)c1ccc(F)cc1F [OMIPALISIB]
inactive: [1] > 30 µM | [2] > 30 µM | Ephrin type-B receptor 6 > 30 µM | [3] > 30 µM | [4] > 30 µM | [5] > 30 µM

C[C@H]1CNCCCN1S(=O)(=O)c1cccc2cncc(F)c12
inactive: [1] > 30 µM | [2] > 30 µM | Ephrin type-B receptor 6 > 30 µM | [3] > 30 µM | [4] > 30 µM | [5] > 30 µM

Cc1cnc(NC(=O)Nc2cc(Br)c(C)cc2OC[C@@H]2CNCCO2)cn1 [RABUSERTIB]
inactive: [1] > 30 µM | [2] > 30 µM | Ephrin type-B receptor 6 > 30 µM | [3] > 30 µM | [4] > 30 µM | [5] > 30 µM

C[C@@H](Oc1cc(C(=O)Nc2ccc(C(=O)N3CCN(C)CC3)cc2)nnc1N)c1c(Cl)ccc(F)c1Cl
inactive: [1] > 30 µM | [2] > 30 µM | Ephrin type-B receptor 6 > 30 µM | [3] > 30 µM | [4] > 30 µM | [5] > 30 µM

Cc1cccc(-c2nn3c(c2-c2ccnc4ccc(C(N)=O)cc24)CCC3)n1 [GALUNISERTIB]
inactive: [1] > 30 µM | [2] > 30 µM | Ephrin type-B receptor 6 > 30 µM | [3] > 30 µM | [4] > 30 µM | [5] > 30 µM

O=C(Nc1nc2cccc(-c3ccc(CN4CCS(=O)(=O)CC4)cc3)n2n1)C1CC1 [FILGOTINIB]
inactive: [1] > 30 µM | [2] > 30 µM | Ephrin type-B receptor 6 > 30 µM | [3] > 30 µM | [4] > 30 µM | [5] > 30 µM

COc1cc([C@@H]2c3cc4c(cc3[C@H](O)[C@H]3COC(=O)[C@@H]23)OCO4)cc(OC)c1OC [AXL-1717]
inactive: [1] > 30 µM | [2] > 30 µM | Ephrin type-B receptor 6 > 30 µM | [3] > 30 µM | [4] > 30 µM | [5] > 30 µM
